In series [1] the test system is Helicobacter pylori. In words: Helicobacter pylori eradication rate in vivo (urease test). Particulars: infected gerbils, 50 mg/kg by tube, 3 × daily, 4 days; urease test of antrum tissue four weeks after last treatment. The method, then:
Determination of the Helicobacter Pylori Eradication Rate in Vivo
Gerbils were infected on days 1, 3, and 5 with a suspension containing 108-109 Helicobacter pylori bacteria per animal. […] Beginning on day 36, the gerbils were treated on four successive days—three times daily at 07.30, 11.30, and 15.00 hours—with a placebo or the test substance, using a tube. Four weeks after the last treatment, the gerbils were sacrificed using CO2. A tissue sample of the antrum was introduced into the urease test solution and incubated at 37° C. for 24 hours. Changes in color of the solution from yellow to violet, which resulted from the increase in pH caused by the formation of NH3 from the urease, were detected. The eradication rate was calculated as the percentage of animals whose stomach tissue sample gave a negative urease test.
Conditions Under Which the Animals Were Kept:
Groups of 5-10 gerbils per cage (type IV Macrolon cage) were kept at an ambient temperature of 23±2° C. and a relative humidity of 50±10%. They were fed ad libitum with NAFAG feed No. 9439 for rats and mice (NAFAG AG, CH-2900, Gosseu, Switzerland) and had free access to mains water during the experiment.
The substances administered are referenced in table C below using numbers which correspond to the numbers of the compounds in the examples.

Series [2] concerns Helicobacter pylori. In words: Inhibition of growth in vitro in liquid culture (NanoOrange fluorescence). As to conditions: BHI/6% FCS medium, 24 hours, 37° C., microaerobic, 1% DMSO. The class given is cell-based. The method, then:
(§1) Determination of the Inhibition of Growth in Vitro in Liquid Culture
(§2) The principle of the technique is based on the detection of the multiplication of, for example, Helicobacter pylori in liquid culture using BHI/6% FCS medium. The method ensures linear fluorescence increase in the range from […].
(§3) The bacterial culture was distributed with an initial density of 1-3×10^8 microbes/ml in a 96-well MTP in 100 μl aliquots. The test substances in a concentration of […] in a final concentration of 1% DMSO were added to these minicultures. These MTPs were then incubated under microaerobic conditions (Anaerokult, Merck) and with shaking at 37° C. for 24 hours. Following the 24-hour incubation, the minicultures were transferred to filter MTPs and washed twice with isotonic buffer (filtered off with suction, taken up, shaken) and finally were taken up in double-distilled water and shaken, and an aliquot was transferred to a new MTP. This aliquot was admixed with the fluorescent dye NanoOrange (Molecular Probes) in accordance with the manufacturer's instructions. Development of protein detection took piece at 90° C. in a pressure-secured sandwich technique. After the plates had cooled, the fluorescence was measured on a plate reader at 549 nm. […] This calculation was made using origin, sigmoidal curve adaptation by means of the ‘logistic’ algorithm.

For a further series, the system named is E. coli. Described as above. Type of series: cell-based. As to conditions: Escherichia coli, 24 hours incubation. The method, then:
as §1, §2, §3

Series [3] has as its system Helicobacter pylori. In words: Agar dilution test (inhibition of growth in vitro on agar plates). The class given is cell-based. Particulars: Columbia agar (Oxoid), growth period of 4 days; for MIC50: Helicobacter pylori, 96 h, read-out: approx. MIC50.

pIC50: −log10 of the molar value. Converted amounts (≈) assume the structure as drawn. Bounds are passed on as bounds.

As for `Cc1nc(C)c(Cl)c(NCc2ccc(Oc3ccc4ncc([N+](=O)[O-])n4n3)cc2)n1` [Compound 1, (5-Chloro-2,6-dimethylpyrimidin-4-yl)[4-(3-nitroimidazo[1,2-b]pyridazin-6-yloxy)benzyl]amine], the melting point was 203 °C. Also, the Eradication rate with Helicobacter pylori [1] is 100%. The pIC50 in the series with Helicobacter pylori [2] is 7.59. Besides, the negative-log IC50 (pIC50) in the series with E. coli was less than 6.00. Moreover, the MIC50 in the series with Helicobacter pylori [3] is roughly 0.005 µg/mL (≈ 0.0117 µM).
In turn, `Cc1nc(C)c(Cl)c(NCc2cccc(Oc3ccc4ncc([N+](=O)[O-])n4n3)c2)n1` [Compound 3, (5-Chloro-2,6-dimethylpyrimidin-4-yl)[3-(3-nitroimidazo[1,2-b]pyridazin-6-yloxy)benzyl]-amine] came in with a melting point of 222 to 223 °C. Also, in the series with Helicobacter pylori [3], the MIC50 is roughly 0.05 µg/mL (≈ 0.117 µM).
In turn, `COc1cc(CNc2nc(C)nc(C)c2Cl)ccc1Oc1ccc2ncc([N+](=O)[O-])n2n1` [Compound 4, (5-Chloro-2,6-dimethylpyrimidin-4-yl)[3-methoxy-4-(3-nitroimidazo[1,2-b]pyridazin-6-yloxy)-benzyl]amine] registered a melting point of 229 to 232 °C. In addition, the Eradication rate in the series with Helicobacter pylori [1] was determined as 100%. Moreover, in the series with Helicobacter pylori [3], the MIC50 was roughly 0.001 µg/mL (≈ 0.00219 µM).
`Cc1nc(C)c(Cl)c(NCc2ccc(Oc3ccc4ncc([N+](=O)[O-])n4n3)c(OCC3CC3)c2)n1` [Compound 6, (5-Chloro-2,6-dimethylpyrimidin-4-yl)[3-cyclopropylmethoxy-4-(3-nitroimidazo[1,2-b]pyridazin-6-yloxy)benzyl]amine] returned a melting point of 178 to 180 °C.
With `Cc1nc(C)c(Cl)c(NCc2ccc(Oc3ccc4ncc([N+](=O)[O-])n4n3)c(OC(F)F)c2)n1` [Compound 8, (5-Chloro-2,6-dimethylpyrimidin-4-yl)[3-(1,1-difluoromethoxy)-4-(3-nitroimidazo[1,2-b]pyridazin-6-yloxy)benzyl]amine], the melting point fell in the range of 191 to 193.5 °C. The compound further came in with an Eradication rate with Helicobacter pylori [1] of 100%. Also, the MIC50 with Helicobacter pylori [3] was roughly 0.01 µg/mL (≈ 0.0203 µM).
Compound `Cc1nc(C)c(Cl)c(NCc2ccc(Oc3ccc4ncc([N+](=O)[O-])n4n3)c(C)c2)n1` [Compound 9, (5-Chloro-2,6-dimethylpyrimidin-4-yl)[3-methyl-4-(3-nitroimidazo[1,2-b]pyridazin-6-yloxy)-benzyl]amine] showed a melting point of 183 to 185 °C. The MIC50 with Helicobacter pylori [3] is roughly 0.001 µg/mL (≈ 0.00227 µM).
In turn, `Cc1nc(C)c(Cl)c(NCc2ccc(Oc3ccc4ncc([N+](=O)[O-])n4n3)c(F)c2)n1` [Compound 10, (5-Chloro-2,6-dimethylpyrimidin-4-yl)[3-fluoro-4-(3-nitroimidazo[1,2-b]pyridazin-6-yloxy)-benzyl]amine] showed a melting point of 193 to 196 °C. The compound also registered an Eradication rate in the series on Helicobacter pylori [1] of 100%. The MIC50 in the series on Helicobacter pylori [3] was roughly 0.01 µg/mL (≈ 0.0225 µM).
The corresponding values for `Cc1nc(C)c(Cl)c(NCc2ccc(Oc3ccc4ncc([N+](=O)[O-])n4n3)cc2F)n1` [Compound 11, (5-Chloro-2,6-dimethylpyrimidin-4-yl)[2-fluoro-4-(3-nitroimidazo[1,2-b]pyridazin-6-yloxy)-benzyl]amine] are 147 to 149 °C, 100% and roughly 0.01 µg/mL (≈ 0.0225 µM).
Turning to `Cc1nc(C)c(Cl)c(NCc2ccc(Oc3ccc4ncc([N+](=O)[O-])n4n3)c(OCC(F)(F)F)c2)n1` [Compound 12, (5-Chloro-2,6-dimethylpyrimidin-4-yl)[4-(3-nitroimidazo[1,2-b]pyridazin-6-yloxy)-3-(2,2,2-trifluoroethoxy)benzyl]amine], the melting point is 185 to 188 °C. Also, in the series on Helicobacter pylori [3], the MIC50 was roughly 0.01 µg/mL (≈ 0.0191 µM).
`COc1cc(CNc2nc(C)nc(C)c2Cl)cc(Oc2ccc3ncc([N+](=O)[O-])n3n2)c1` [Compound 13, (5-Chloro-2,6-dimethylpyrimidin-4-yl)[3-methoxy-5-(3-nitroimidazo[1,2-b]pyridazin-6-yloxy)-benzyl]amine] showed a melting point of 198 to 199 °C.
On to `Cc1nc(C)c(Cl)c(NCc2cc(O)cc(Oc3ccc4ncc([N+](=O)[O-])n4n3)c2)n1` [Compound 14, 3-[(5-Chloro-2,6-dimethylpyrimidin-4-ylamino)methyl]-5-(3-nitroimidazo[1,2-b]pyridazin-6-yloxy)phenol], for which the melting point worked out at 263 °C. In addition, the MIC50 in the series on Helicobacter pylori [3] is roughly 0.01 µg/mL (≈ 0.0226 µM).
With `Cc1nc(C)c(Cl)c(NCc2cc(Oc3ccc4ncc([N+](=O)[O-])n4n3)ccc2F)n1` [Compound 15, (5-Chloro-2,6-dimethylpyrimidin-4-yl)[2-fluoro-5-(3-nitroimidazo[1,2-b]pyridazin-6-yloxy)-benzyl]amine], the MIC50 with Helicobacter pylori [3] is roughly 0.001 µg/mL (≈ 0.00225 µM).
`COc1cc(CNc2nc(C)nc(C)c2Cl)cc(Br)c1Oc1ccc2ncc([N+](=O)[O-])n2n1` [Compound 16, [3-Bromo-5-methoxy-4-(3-nitroimidazo[1,2-b]pyridazin-6-yloxy)benzyl](5-chloro-2,6-dimethyl-pyrimidin-4-yl)amine] gave a melting point of 230 to 234 °C. This compound also displayed an Eradication rate in the series with Helicobacter pylori [1] of 100%.
Compound `O=[N+]([O-])c1cnc2ccc(Oc3ccc(CNc4ncncc4Cl)cc3)nn12` [Compound 17, (5-Chloro-pyrimidin-4-yl)-[4-(3-nitro-imidazo[1,2-b]pyridazin-6-yloxy)-benzyl]-amine] returned a melting point of 185 °C.
Same read-out and setting: under `Cc1nc(C)c(Cl)c(NCc2ccc(Oc3ccc4ncc([N+](=O)[O-])n4n3)c(O)c2)n1` [Compound 18, (5-Chloro-2,6-dimethyl-pyrimidin-4-yl)-[4-(3-nitro-imidazo[1,2-b]pyridazin-6-yloxy)-5-hydroxy-benzyl]-amine] stands greater than 114 °C.
In the case of “(5-Chloro-2,6-dimethylpyrimidin-4-yl)[4-methoxy-3-nitroimidazo[1,2-b]pyridazin-6-yloxy)-benzyl]amino [Compound 5]”, the “approx. MIC50” value in the series with Helicobacter pylori [3] was roughly 0.05 µg/mL.

(Values after patent US6818642B2, “Benzylaminopyrimidines” (Altana Pharma AG, priority 2001, dated 2004).)
